How the values were obtained:
[1] = tested on: Ehrlich ascitic carcinoma; experiment: Ehrlich ascitic carcinoma, second experiment, intravenous (Table IV); assay type: in vivo, mouse; details: 1.75 mg/kg/day intravenously, 4 days
Method: (§1) At least 20 animals per lot were used.
(§2) Activity tests were carried out on mice, bearing Ehrlich ascitic carcinoma and on rats, which are grafted with hepatoma AH 130 and Oberling-Guerin-Guerin myeloma.
(§3) Mice are grafted intraporitoneally with a suspension of tumor cells and treated with solutions of different concentrations of the antibiotic for five consecutive days starting from the day following the tumor implantation.
The result has been confirmed by a successive experiment in which the antibiotic has been administered at the dose of 1.75 mg/kg intravenously for 4 days (Table IV).

Walker carcinosarcoma [2] = experiment: Walker carcinosarcoma in rats, second experiment (Table IX); assay type: in vivo, rat; details: 3 mg/kg/day intravenously
Method: as §1
(§4) The checking of the activity on solid tumors has been carried out with Ehrlich adenocarcinoma and sarcoma 180 in the mouse and with Walker carcinosarcoma and the Oberling-Guerin-Guerin myeloma in the rat.
A second experiment with rats, bearing the same tumor, has been carried out to investigate the effect of the antibiotic on the animals' survival besides the antitumor activity. In this case the rats were treated intravenously 8 times within 12 days at the dose of 3 mg/kg/day.

Walker carcinosarcoma [3] = experiment: Walker carcinosarcoma in rats (Table VIII); assay type: in vivo, rat; details: for % Inhibition (tumor growth) / Average tumor weight / Mortality / Body weight change, not [net] / Body weight change, gross: 8 times within 10 days; for % Inhibition (tumor growth) / Average tumor weight: 11th day; for Average tumor weight: controls 15.940; for Mortality: controls 1/10; for Body weight change, not [net]: controls +6.96; for Body weight change, gross: controls +22.9
Text: as §1, §4
The rats grafted with this tumor have been treated intravenously 8 times within 10 days; at the 11th day of experiment, the surviving animals were killed and the tumors removed.

[4] = tested on: Oberling-Guerin-Guerin myeloma; experiment: Oberling-Guerin-Guerin myeloma (solid) in Long-Evans rats (Table X); details: 10 days; for % Inhibition (tumor growth) / Average tumor weight: 13th day; for Average tumor weight: controls 17.23; for Mortality: controls 3/12; for Body weight change, not [net]: controls +28.-; for Body weight change, gross: controls +45.2
[5] = tested on: Ehrlich ascitic carcinoma; experiment: Ehrlich ascitic carcinoma in mice (Table III); assay type: in vivo, mouse; details: for Body weight increase / Average survival time: 5 days; for Average survival time: controls 16.4
Method: as §1, §2, §3

[6] = tested on: tumors, ascitic and solid; experiment: Antitumor activity on standard experimental animals (summary statements); assay type: in vivo, mouse and rat
Text: as §1

Ehrlich adenocarcinoma [7] = experiment: Ehrlich adenocarcinoma (solid) in mice (Table VI); assay type: in vivo, mouse; details: controls 0/10
Acute toxicity, rat = details: in vivo
Text: (§5) In the following Table the acute toxicity of Daunomycin as LD50 is reported.

Hepatoma AH 130 = experiment: Ascitic hepatoma AH 130 in Wistar rats; assay type: in vivo, Wistar rat; details: 2 and 1 mg/kg/day intraperitoneally, 5 days, after 50 days of the experiment
Method: as §1, §2
Wistar rats, grafted with accitic hepatoma have been treated intraperitoneously for 5 consecutive days with antibiotic doses of 2 and 1 mg/kg/day.

Acute toxicity, mouse = details: in vivo
Text: as §5

[8] = tested on: Ascitic myeloma (Oberling-Guerin-Guerin myeloma); experiment: Ascitic myeloma (Oberling-Guerin-Guerin) in Wistar rats (Table V); assay type: in vivo, rat; details: for Average survival time: controls 10.7
Method: as §1, §2
This experiment was carried out on Wister rats, which have been grafted with a suspension of tumor cells and then have been treated intraperitoneously with a solution of the antibiotic according to the following scheme: one group three times on alternate days with a dose equal to 2 mg/kg/day; another group for 5 consecutive days with a dose of 1 mg/kg/day.

Solubility = assay type: physicochemical
several microorganisms = experiment: Bacteriostatic activity / antimicrobial spectrum (summary statements); assay type: cell-based
[9] = tested on: Oberling-Guerin-Guerin myeloma; experiment: Oberling-Guerin-Guerin myeloma (solid) in rats, successive experiment (Table XI); assay type: in vivo, rat
Text: as §1
The checking of the activity on solid tumors has been carried out with Ehrlich adenocarcinoma and sarcoma 180 in the mouse and with Walker carcinosarcoma and the Oberling-Guerin-Guerin myeloma in the rat. […]

Ehrlich adenocarcinoma [10] = experiment: Ehrlich adenocarcinoma (solid) in mice (Table VI); assay type: in vivo, mouse; details: for Body weight change, not [net]: controls +2.27; for Body weight change, gross: controls +4.85; for % Inhibition (tumor growth) / Average tumor weight: eighth day; for Average tumor weight: controls 2.583
Text: as §1, §4
Mice grafted with a fragment of tumor subcutaneously for 6 days starting from the day after the transplantation have been treated with a solution of the antibiotic. At the eighth day of experiment all the animals were killed and the tumor was removed and weighed.

[11] = 2.5 mg/kg/day intravenously, 7 times within 14 days

SMILES: COc1cccc2c1C(=O)c1c(O)c3c(c(O)c1C2=O)C[C@@](O)(C(C)=O)C[C@@H]3O[C@H]1C[C@H](N)[C@H](O)[C@H](C)O1 [F.I. 1762]
- Body weight increase ([1]; 7 days after implantation, controls +6.3): +0.1 grams
- Body weight increase ([1]; 12 days after implantation, controls +14.2): +2.2 grams
- Average survival time ([1]; controls 12.4): 35.1 days
- increase of average survival (Walker carcinosarcoma [2]; 8 times within 12 days): 50.8%
- Tumor growth inhibition (Walker carcinosarcoma [2]; 8 times within 12 days, 9th day): 71.0 % of the control
- Tumor growth inhibition (Walker carcinosarcoma [2]; 8 times within 12 days, 29th day): 31.6 % of the control
- Average survival time (Walker carcinosarcoma [2]; 8 times within 12 days, controls 16.9): 25.5 days
- tumor growth inhibition (in words) (Walker carcinosarcoma [2]; 20 days after the injections were stopped): still continues in a remarkable degree
- tumor growth inhibition (in words) (Walker carcinosarcoma [2]; during the treatment): considerable during the treatment
- % Inhibition (tumor growth) (Walker carcinosarcoma [3]; 1 mg/kg/day intravenously): 42.1%
- Average tumor weight (Walker carcinosarcoma [3]; 1 mg/kg/day intravenously): 9.443 grams
- Mortality (Walker carcinosarcoma [3]; 1 mg/kg/day intravenously): 1/10
- Body weight change, not [net] (Walker carcinosarcoma [3]; 1 mg/kg/day intravenously): +0.76 grams
- Body weight change, gross (Walker carcinosarcoma [3]; 1 mg/kg/day intravenously): +10.2 grams
- tolerance (Walker carcinosarcoma [3]; 2 mg/kg/day intravenously): tolerated
- % Inhibition (tumor growth) (Walker carcinosarcoma [3]; 2 mg/kg/day intravenously): 66.1%
- Average tumor weight (Walker carcinosarcoma [3]; 2 mg/kg/day intravenously): 5.404 grams
- Mortality (Walker carcinosarcoma [3]; 2 mg/kg/day intravenously): 1/10
- Body weight change, not [net] (Walker carcinosarcoma [3]; 2 mg/kg/day intravenously): +22.25 grams
- Body weight change, gross (Walker carcinosarcoma [3]; 2 mg/kg/day intravenously): +27.9 grams
- effect on this type of tumor (Walker carcinosarcoma [3]; especially with 2 mg/kg/day intravenously): marked inhibitory effect
- % Inhibition (tumor growth) ([4]; 2 mg/kg/day intravenously): 34.5%
- Average tumor weight ([4]; 2 mg/kg/day intravenously): 11.30 grams
- Mortality ([4]; 2 mg/kg/day intravenously): 0/12
- Body weight change, not [net] ([4]; 2 mg/kg/day intravenously): +20 grams
- Body weight change, gross ([4]; 2 mg/kg/day intravenously): +33.3 grams
- % Inhibition (tumor growth) ([4]; 4 mg/kg/day intravenously): 82.8%
- Average tumor weight ([4]; 4 mg/kg/day intravenously): 2.98 grams
- Mortality ([4]; 4 mg/kg/day intravenously): 4/12
- Body weight change, not [net] ([4]; 4 mg/kg/day intravenously): +0.8 grams
- Body weight change, gross ([4]; 4 mg/kg/day intravenously): +3.8 grams
- Body weight increase ([5]; 0.75 mg/kg/day, 7 days after implantation, controls +9.6): +2.9 grams
- Body weight increase ([5]; 0.75 mg/kg/day, 14 days after implantation, controls +21.4): +5.3 grams
- Body weight increase ([5]; 1.25 mg/kg/day, 7 days after implantation, controls +9.6): +1.5 grams
- Body weight increase ([5]; 1.25 mg/kg/day, 14 days after implantation, controls +21.4): +3.1 grams
- Body weight increase ([5]; 1.25 mg/kg/day, 21 days after implantation): +4.4 grams
- Average survival time ([5]; 1.25 mg/kg/day): 32.0 days
- Body weight increase ([5]; 1.75 mg/kg/day, 7 days after implantation, controls +9.6): +1.3 grams
- Body weight increase ([5]; 1.75 mg/kg/day, 14 days after implantation, controls +21.4): +2.4 grams
- Body weight increase ([5]; 1.75 mg/kg/day, 21 days after implantation): +4.7 grams
- Average survival time ([5]; 1.75 mg/kg/day): 36.4 days
- average survival rate of the treated animals ([5]; 1.75 and 1.25 mg/kg/day): increased considerably
- effect on the ascitic tumor growth ([5]; 1.75 and 1.25 mg/kg/day): remarkable inhibitory effect on the ascitic tumor growth
- effect in solid tumors ([6]; activity differs according to administration route and dose): Good inhibiting effect
- effect on the tumor growth in ascitic form ([6]; immediate contact of the antibiotic and the neoplastic cells): marked inhibitory effect on the tumor growth in ascitic form
- results by route and dose ([6]; intravenous, doses between 2 and 3 mg/kg/body weight day): best results
- usefulness as antitumoral ([6]; standard experimental animals): particularly useful as antitumoral
- Mortality (Ehrlich adenocarcinoma [7]; 3 mg/kg/day): 0/10
- Mortality (Ehrlich adenocarcinoma [7]; 6 mg/kg/day): 0/10
- LD50 (Acute toxicity, rat; intravenous): 13 to 15 mg/kg
- LD50 (Acute toxicity, rat; ip, intraperitoneal): 8 mg/kg
- trace of tumor (Hepatoma AH 130): In none of them was any trace of tumor noticed
- survival of treated rats (Hepatoma AH 130; controls average survival 11.8 days): all the treated rats were still alive after 50 days of the experiment
- LD50 (Acute toxicity, mouse; intravenous): 20 mg/kg
- LD50 (Acute toxicity, mouse; ip, intraperitoneal): 5 mg/kg
- Average survival time ([8]; 1 mg/kg/day intraperitoneally, 5 consecutive days): 16.7 days
- Average survival time ([8]; 2 mg/kg/day intraperitoneally, three times on alternate days): 17.7 days
- diffusion of the tumor ([8]; 2 mg/kg/day x 3 or 1 mg/kg/day x 5, intraperitoneally): a delay in the diffusion of the tumor has been observed
- solubility (Solubility; in alcohols, ketones, halogenated hydrocarbons, aqueous solutions of organic and inorganic acids): soluble
- solubility (Solubility; in ethers and saturated hydrocarbons): practically insoluble
- solubility in water (Solubility; water): slightly soluble
- antimicrobial spectrum (several microorganisms): embraces grampositive, gram-negative bacteria, fungi and protozoa
- bacteriostatic activity against several microorganisms (several microorganisms): remarkable bacteriostatic activity against several microorganisms
- % Inhibition, spleen [9, 11]: 54.1%
- % Inhibition, tumor [9, 11]: 69.5%
- Average weight, spleen ([9]; 2.5 mg/kg/day intravenously, 7 times within 14 days, controls 1.303): 0.598 grams
- Mortality ([9]; 2.5 mg/kg/day intravenously, 7 times within 14 days, controls 5/15): 5/15
- Average weight, tumor ([9]; 2.5 mg/kg/day intravenously, 7 times within 14 days, controls 13.486): 4.114 grams
- Body weight change, not [net] ([9]; 2.5 mg/kg/day intravenously, 7 times within 14 days, controls +40.22): +16.79 grams
- Body weight change, gross ([9]; 2.5 mg/kg/day intravenously, 7 times within 14 days, controls +53.7): +20.9 grams
- tolerance of the antibiotic ([9]; Tables X and XI, 2 mg and 2.5 mg/kg/day intravenously): good tolerance
- activity against this kind of tumor ([9]; Tables X and XI, 2 mg and 2.5 mg/kg/day intravenously produced the best results): active also against this kind of tumor
- Body weight change, not [net] (Ehrlich adenocarcinoma [10]; 3 mg/kg/day): +1.59 grams
- Body weight change, gross (Ehrlich adenocarcinoma [10]; 3 mg/kg/day): +3.84 grams
- % Inhibition (tumor growth) (Ehrlich adenocarcinoma [10]; 3 mg/kg/day): 12%
- Average tumor weight (Ehrlich adenocarcinoma [10]; 3 mg/kg/day): 2.253 grams
- Body weight change, not [net] (Ehrlich adenocarcinoma [10]; 6 mg/kg/day): +1.07 grams
- Body weight change, gross (Ehrlich adenocarcinoma [10]; 6 mg/kg/day): +2.59 grams
- % Inhibition (tumor growth) (Ehrlich adenocarcinoma [10]; 6 mg/kg/day): 41.1%
- Average tumor weight (Ehrlich adenocarcinoma [10]; 6 mg/kg/day): 1.522 grams
